# Test results reported in article PMC3714338 (Analytical biochemistry, 2013).
# Biological target: Mtb APR (adenosine 5′-phosphosulfate reductase; also MtbAPSR) (Mycobacterium tuberculosis, UniProt P9WIK3)
# Assay: biochemical
# Chain of Mtb APR (adenosine 5′-phosphosulfate reductase; also MtbAPSR) (P9WIK3 whole entry, looked up): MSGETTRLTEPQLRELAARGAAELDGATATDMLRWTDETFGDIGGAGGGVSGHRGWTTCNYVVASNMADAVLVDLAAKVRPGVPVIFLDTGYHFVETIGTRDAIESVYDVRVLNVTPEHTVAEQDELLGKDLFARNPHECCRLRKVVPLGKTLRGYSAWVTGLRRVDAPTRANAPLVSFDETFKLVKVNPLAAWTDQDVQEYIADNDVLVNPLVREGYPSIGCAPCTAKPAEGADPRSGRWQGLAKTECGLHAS
compound,measurement,value
Nc1ncnc2c1ncn2[C@@H]1O[C@H](COP(=O)(O)OP(=O)(O)O)[C@@H](O)[C@H]1O [ADP],Ki,83 ± 0.2 µM
